Data: patent publication US10906909B2, “Treatment of cognitive and mood symptoms in neurodegenerative and neuropsychiatric disorders with ALPHA5-containing GABAA receptor agonists” (UWM Research Foundation, Inc., priority 2016, dated 2021)
“And” between values parts separate entries of the source, which are not always exact repeats. Identical values can stand only once. “Also recorded” adds a separate entry of the source.

Columns and labels:
[1] = tested on: mice subjected to chronic restraint stress (CRS); assay: Y-maze alternation task, chronic restraint stress (CRS) mice; assay type: in vivo, mouse; conditions: Dose 5 mg/kg
Method: C57/B16 mice, males and females were ordered from Jackson Laboratories at 8 weeks old and were kept in normal housing conditions (12 h light ON cycle starting at 7 am/water and food ad libitum) for one week. During this week, animals were single housed and handled to reduce the anxiety-like response toward the experimenter. To induce a working memory deficit, mice were subjected to a chronic restraint stress protocol (CRS). They were placed in a 50 ml Falcon® tube, twice a day, for 1 hour during their diurnal cycle. The time of occurrence of the stress was randomized every day to avoid predictability. CRS was not applied on testing days. Y-maze test occurred 15 hours minimum after the last stressor.
Mice were first habituated to the Y-maze apparatus and distal cues during 2 consecutive days over a 10 min free exploration session (one session per day). The next day, animals performed a training session consisting in seven successive trials separated by a 30 s inter-trial interval (ITI); during this training session, mice were familiarized with the experimental procedure (opening and closing of the doors and confinement into the goal arms). For each trial, mice remained in the start-box for a 30 s ITI. Then, the door was opened and the mouse was allowed to enter freely one of the two goal arms; the chosen arm was closed and the choice was recorded. After a 30 s confinement period into the chosen arm, the mouse was removed and brought back to the start-box for a second trial identical to the first one and this procedure was repeated over the series of trials.
The same general procedure used in the training session was implemented 24 h later, except that the ITI was lengthened to 90 s. For this experiment, animals were acutely injected i.p. with vehicle or αPAM, 30 minutes before the beginning of the test. To dissociate memory deficits from an eventual progressive loss of motivation to alternate over the series, an 8th trial was added to the series which was separated from the 7th trial by a shorter ITI (5 s). All animals failing to alternate at the 8th trial were excluded. The mean alternation rate was calculated and was expressed in percentage (number of alternation done by the animal/total number of alternation possible×100)±SEM. The percentage of alternation during the entire task is considered as an index of working memory performance (50% of being a random alternation rate). Factorial ANOVA was applied to the data to reveal differences between groups. If the ANOVA was significant for group effect (p<0.05), Scheffe post-hoc analysis were conducted to identify which groups are different from each other.
All drugs were diluted in a vehicle solution containing 85% H2O, 14% propylene glycol (Sigma Aldrich) and 1% Tween 80 (Sigma Aldrich). Working solutions were prepared at a concentration of 10 mg/mL and administered i.p. adjusted to the body weight of each animal. Doses used were either 1, 5, 10 or 20 mg/kg. For all Y maze experiments, animals were acutely injected i.p. with vehicle or αPAM, 30 minutes before the beginning of the test.

adult male Wistar rats = assay: Spontaneous locomotor activity in rats; assay type: in vivo, rat; conditions: 10 mg/kg i.p.; for distances traveled in 5-min intervals: 60 min recording; for overall distance traveled during 60 min (spontaneous locomotor activity): vs SOL
Method: (FIG. 23). […] Procedure for the assessment of locomotor activity changes induced by additional ligands in rats. […] The test was performed in the apparatus consisting of four white and opaque Plexiglas chambers (40×25×35 cm) under dim red light (20 lux). Digital camera mounted above the apparatus recorded the animal activity, which was tracked and analyzed using ANY-maze Video Tracking System software (Stoelting Co, Wood Dale, Ill., USA). […] The 10 mg/kg dose of each of ligands or SOL were applied i.p. in the 10 ml/kg volume and a single rat was immediately placed in the center of the chamber. The activity was tracked for a total of 60 min. Chambers were cleaned with diluted ethanol after every trial. Statistical analysis (one-way ANOVA and post hoc SNK tests where applicable) was performed in SigmaPlot 11 software (Systat, USA).

[2] = tested on: Female Swiss Webster mice; assay: Rotarod sensorimotor / locomotor coordination; assay type: in vivo, mouse; conditions: for sensorimotor impairment on rotarod (time of fall): 40 mg/kg oral gavage, 15 rpm, 3 min, 10, 30, 60 min after dosing
Method: Female Swiss Webster mice (10 weeks of age) from Charles River Laboratory, WIL, MA were used for the experiments. The animals were housed under specific pathogen-free conditions, under standard conditions of humidity, temperature and a controlled 12 h light and dark cycle and had free access to food and water. The sensorimotor rotarod test was carried out 10, 30 and 60 minutes after the injection. Mice were tested on a rotarod at 15 rpm for maximum 3 min and the time of fall was recorded. Falling before the 3 minutes period of testing assesses of locomotor coordination impairment induced by the compound.
Mice (N=10/group) received a single administration via oral gavage of test compound (40 mg/kg), diazepam (5 mg/kg), or vehicle (2% polyethylene glycol, 2.5% hydroxypropylmethyl cellulose solution).

[3] = Human liver microsome stability assay; assay type: in vitro ADME; conditions: 10 μM compound
Method: (§1) Human and mouse liver microsomes were obtained fom BD Gentest.
(§2) Each evaluation included six independent assays carried out three at a time, on two different days
(§3) 2. For a total volume of Microsomal Assay Mixture (MAM) 390 μL, sufficient for seven time points, combine the following
(§4) 3. Sonicate MAM for 5 min and meanwhile thaw microsomes (20 mg/mL) (BD Gentest, Cat #452156) on ice.
(§5) 4. Aliquot 100 μL of ice cold ISTD into 7 separate 1.5 mL conical vials and label them the time points for 0, 10, 20, 40, 60, 90, and 120 min.
(§6) 5. Arrange the timer. Microsomes (Final concentration of 0.5 mg/mL) should be added to all time points except the zero time point.
(§7) 6. Add 50 μL of the MAM solution to the conical vial labelled as zero time point. Place the remaining MAM solution in the incubator (37° C.) for 5 min and initiate the reaction with addition of microsomes (8.8 μL) and record the time.
(§8) 7. At the end of each time interval remove 50 μL and add 100 μL to ISTD in conical vial, sonicate for 10 sec and spin down at 10,000 rpm for 5 minutes.
(§9) 8. Take 100 μL of supernatant and transfer to Spin-X HPLC filter tubes (Corning Incorporated, Cat #8169) and centrifuge at 13,000 rpm for 5 minutes and take 5 μL from this solution and dilute in 495 μL of LCMS grade methanol (Fischer scientific, CAS #67-56-1) in an 2 mL glass auto sampler vial (Microsolv, Cat #95025-WCV) 9. The samples are analyzed by LCMS-8040. (Shimadzu)
(§10) Calculation: From the peak area, calculate the following
(§11) The compounds are tested for the metabolic stability in the Human and Mouse Liver microsomes at 10 μM concentration.

[4] = Mouse liver microsome stability assay; assay type: in vitro ADME; conditions: 10 μM compound
Method: as §1, §2, §3, §4, §5, §6, §7, §8, §9, §10, §11

HEK293 = assay: Cytotoxicity assay (CellTiter-Glo), HEK293; assay type: cell-based, human; conditions: 48 hours incubation
Method: (§12) Human liver hepatocellular carcinoma (HEPG2) and human embryonic kidney 293 (HEK293) cell lines were purchased (ATCC) and cultured in 75 cm2 flasks (CellStar). Cells were grown in DMEM/High Glucose (Hyclone, #SH3024301) media to which non-essential amino acids (Hyclone, #SH30238.01), 10 mM HEPES (Hyclone, #SH302237.01), 5×106 units of penicillin and streptomycin (Hyclone, #SV30010), and 10% of heat inactivated fetal bovine serum (Gibco, #10082147) were added. Cells were harvested using 0.05% Trypsin (Hyclone, #SH3023601), washed with PBS, and dispensed into sterile white, optical bottom 384-well plates (NUNC, #142762). After three hours, small molecule solutions were transferred with a Tecan Freedom EVO liquid handling system equipped with a 100 nL pin tool (V&P Scientific). The controls (E)-10-(bromotriphenylphosphoranyl)decyl 4-(4-(tert-butyl)phenyl)-4-oxobut-2-enoate (400 μM in DMSO, positive control) and DMSO (negative control). The cells were incubated for 48 hours followed by the addition of CellTiter-Glo™, a luminescence-based cell viability assay (Promega, Madison, Wis.). All luminescence readings were performed on a Tecan Infinite M1000 plate reader. The assay was carried out in quadruplet with three independent runs. The data was normalized to the controls and analyzed by nonlinear regression (GraphPad Prism).

HEPG2 = assay: Cytotoxicity assay (CellTiter-Glo), HEPG2; assay type: cell-based, human; conditions: 48 hours incubation
Method: as §12

[5] = Pharmacokinetics in mice (plasma, liver, brain); conditions: i.p. dosing at 3 mg/kg
rats [6] = assay: Morris water maze; assay type: in vivo, rat; conditions: diazepam 2 mg/kg, positive control
Method: The potential of MP-III-022 to affect cognitive performance of rats was assessed in 2 well-validated behavioral models. First, Morris water maze experiments were performed in a 2 m diameter circular pool filled to a height of 30 cm with water at 22±1° C. The escape platform (15 cm×10 cm) was submerged 2 cm below the water surface. All experimental details were as described in Savic et al. (Int. J. Neuropsychopharmacol. 2009, 12, 1179-1193). On each of the five consecutive days rats were given one swimming block, consisting of four trials. For each trial the rat was placed in the water at one of four pseudo-randomly determined starting positions. Once the rat has found and mounted the escape platform it was permitted to remain on the platform for 15 s. […] During the acquisition phase, treatments were applied once daily before the swimming block. On the sixth day, rats were given a treatment-free probe test (60 s) without the platform. The probe test was started from the novel, most distant location. Dependent variables chosen for tracking during the acquisition trials were: escape latency (s), total distance traveled (m), path efficiency (the ratio of the shortest possible path length to actual path length), % of distance swam in the peripheral annulus and mean speed (m/s). The selected parameters in the probe test were the distance swam in the target zone […] and % of the distance swam in the peripheral annulus. We tested the effects of 1, 2.5 and 10 mg/kg MP-III-022 and 2 mg/kg diazepam as control drug. The doses of MP-III-022 were selected so that they elicit a mild, moderate and strong positive modulation of α5GABAARs, respectively, in accordance with the analysis of thorough pharmacokinetic and electrophysiological data presented in Stamenic et al. (Eur. J. Pharmacol. 2016, 791, 433-443). The data from the acquisition days in the Morris water maze were averaged for each rat (total data/total number of trials per day) and analyzed using two-way ANOVA with repeated measures (factors: Treatment and Days) with Days as the repeated measure. In the case of significant interaction, separate one-way ANOVAs were conducted to assess the influence of treatment within individual levels of factor Days. The data from the probe test were assessed using one-way ANOVA.

rats [7] = assay: Social novelty discrimination (SND); assay type: in vivo, rat; conditions: 2.5 mg/kg diazepam (so in the source)
Method: The SND test compares the social investigation times of an adult rat with a familiar and a novel juvenile rat. Testing consisted of two consecutive juvenile presentations periods to an adult subject: period 1 (P1) and period 2 (P2). At the beginning of P1, one juvenile was placed into the adult home cage and the time spent by the adult investigating the juvenile (anogenital sniffing, licking, close pursuing and pawing) was recorded manually for 5 min. During P2, the same juvenile and a second, novel juvenile were placed in the cage together with the adult, and the times spent by the adult investigating each juvenile were measured independently for 3 min. A different pair of juvenile rats was presented to each adult tested. Manual scoring was conducted in a blinded manner. SND was deliberately impaired in control rats by the parametric manipulation applied, as there was 30 min delay between P1 and P2, and their SND was expected to be low. The influence of MP-III-022 (1, 2.5 or 10 mg/kg) on the thus induced impairment in SND was examined. There were five groups of rats which received one of the following treatments 20 min before P1: solvent, 1.5 mg/kg diazepam and 1, 2.5 and 10 mg/kg MP-III-022. The amount of time investigating familiar (Tf) and novel (Tn) juvenile during P2 was manually scored, and discrimination indexes (Tn−Tf/Tn+Tf) was calculated. Total exploration time during P1 and P2 was also manually recorded.

Row | SMILES | Alternation rate (%) [1] | distances traveled in 5-min intervals (adult male Wistar rats) | overall distance traveled during 60 min (spontaneous locomotor activity) (adult male Wistar rats) | sensorimotor impairment on rotarod (time of fall) [2] | Half-life (min) (HumanLM) [3] | Half-life (min) (MouseLM) [4] | % left after 2 hr. (MouseLM) [4] | HEK293 LD50 (HEK293) | HEPG2 LD50 (HEPG2) | molar concentration range reached in mouse brain tissue [5] | % left after 2 hr. (Human LM) ([3]; 2 hr) | half-life at 10 μM ([3]; human, liver microsomes, read-out: Half-life (min) (HumanLM)) | half-life at 10 μM ([4]; mouse, liver microsomes, read-out: Half-life (min) (MouseLM)) | spatial learning during acquisition in the water maze (rats [6]) | time exploring the familiar and the novel juvenile rat during P2 (rats [7]) | sensorimotor performance on rotarod (time of fall) ([2]; diazepam 5 mg/kg oral gavage, positive control)
1 | C#Cc1ccc2c(c1)C(c1ccccc1F)=N[C@@H](C)c1c(C(=O)NC)ncn1-2 [MP-III-023, (S)-8-ethynyl-6-(2-fluorophenyl)-N,4-dimethyl-4H-benzo[f]imidazo[1,5-a][1,4]diazepine-3-carboxamide] | 62.5% | induced sedation during nearly the whole period of recording | profound sedation | most severe motor impairment | 1790 ± 40 min | 846 ± 5 min | 84.6% and 84.6 ± 0.2% | >200 µM | >200 µM | micromolar concentrations |  |  |  |  |  | 
2 | CNC(=O)c1ncn2c1CN=C(c1ccccc1F)c1cc(Br)ccc1-2 [RV-II-04] | 54.1% | induced sedation during nearly the whole period of recording | profound sedation; also recorded: sedated when compared to all other groups | most severe motor impairment |  |  | 73.7 ± 0.3% | >200 µM | >200 µM | micromolar concentrations | 80.2 ± 0.4% | 595 ± 157 min | 302 ± 33 min |  |  | 
3 | CN1C(=O)CN=C(c2ccccc2)c2cc(Cl)ccc21 [diazepam, reference compound] |  |  |  |  |  |  |  |  |  |  |  |  |  | spatial learning incapacitation | statistical trend | sensorimotor steadiness at 10 minutes
